According to PMC11480954, “Molecular determinants of resurgent sodium currents mediated by Navβ4 peptide and A-type FHFs” (Frontiers in Molecular Neuroscience, 2024):

Assays:
Nav1.8 N390K = assay: INaR, Nav1.8 mutant N390K; format: cell-based, human; conditions: 1 mM FHF4A peptide
Protocol: (§1) HEK293 cells and ND7/23 cells were grown under standard tissue culture conditions (5% CO2 and 37°C) in DMEM supplemented with 10% FBS, 1% penicillin and 1% streptomycin. Using Invitrogen Lipofectamine 2000, human Nav1.7 R1599P (rpNav1.7) and the mutant constructs were transiently co-transfected with Navβ1 and Navβ2 into HEK293 cells. The constructs human Nav1.8 and mutants were transiently co-transfected with FHF2B or FHF4A into ND7/23 cells. The lipofectamine-DNA mixture was added to the cell culture medium and left for 3 h after which the cells were washed with fresh medium. Cells with green fluorescent protein fluorescence were selected for whole-cell patch-clamp recordings 36–72 h after transfection.
(§2) Whole-cell voltage-clamp recordings were performed at room temperature (~21°C) using an EPC-10 amplifier and the Pulse program (HEKA Electronics). […]
(§3) INaR: INaR was elicited by repolarizing voltage steps from +20 to −80 mV for 100 ms (or 200 ms) in −5 mV increments, following a 20-ms depolarizing potential of +30 mV. […] The relative INaR in Nav1.7 and Nav1.8 was calculated by normalizing to the peak transient current elicited at −10 or 0 mV.

Nav1.8 N891S = assay: Gating properties, Nav1.8 mutant N891S; format: cell-based, human; conditions: 1 mM FHF4A peptide
Protocol: as §1
(§4) Whole-cell voltage-clamp recordings were performed at room temperature (~21°C) using an EPC-10 amplifier and the Pulse program (HEKA Electronics). Fire-polished electrodes (0.7–1.0 MΩ) were fabricated from 1.7 mm capillary glass using a P-97 puller (Sutter Instruments), and the tips were coated with sticky wax (KerrLab) to reduce electrode capacitance and enable increased series resistance compensation. The pipette solution contained (in mM) 140 CsF, 1.1 EGTA, 10 NaCl, and 10 HEPES, pH 7.3. The bathing solution was (in mM) 130 mM NaCl, 30 mM TEA chloride, 1 mM MgCl2, 3 mM KCl, 1 mM CaCl2, 10 mM HEPES, and 10 mM d-glucose, pH 7.3 (adjusted with NaOH). […] The offset potential was zeroed before contacting the cell. After establishing the whole-cell recording configuration, the resting potential was held at −120 or −100 mV for 5 min to allow adequate equilibration between the micropipette solution and the cell interior. Linear leak subtraction, based on resistance estimates from four to five hyperpolarizing pulses applied before the depolarizing test potential, was used for all voltage clamp recordings. Membrane currents were usually filtered at 5 kHz and sampled at 20 kHz. […] Voltage errors were minimized using 80–95% series resistance compensation, and the capacitance artifact was canceled using the computer-controlled circuitry of the patch clamp amplifier. […] The concentration-dependent curves were fitted to a hill equation: Y = Bottom + (Top-Bottom)/(1 + 10^((LogEC50-X)*HillSlope)).
Families of sodium currents were induced by 50-ms depolarizing steps to various potentials ranging from −120 (or −100) to +40 mV in 5-mV increments. The conductance was calculated using the equation G(Nav) = I/(V - Vrev) in which I, V, and Vrev represent inward current value, membrane potential, and reversal potential, respectively. […]

Nav1.8 F1710K = assay: INaR, Nav1.8 mutant F1710K; format: cell-based, human; conditions: 1 mM FHF4A peptide
Protocol: as §1, §2, §3

[1] = target: T1, human Nav1.7 R1599P (rpNav1.7) (Homo sapiens, UniProt Q15858, R1610P); assay: Inhibition of Navβ4 peptide-mediated rpNav1.7 INaR; format: cell-based; conditions: 100 μM Navβ4 peptide + 1 mM FHF4A peptide, HEK293; n = 5
T1 construct: expressed in transfected cells; host or cells: HEK293 cells, transient transfection with pcDNA3.1 construct

human Nav1.8 = assay: Gating properties (steady-state activation, inactivation, INaP), Nav1.8; format: cell-based
Protocol: as §1, §4
Families of sodium currents were induced by 50-ms depolarizing steps to various potentials ranging from −120 (or −100) to +40 mV in 5-mV increments. The conductance was calculated using the equation G(Nav) = I/(V - Vrev) in which I, V, and Vrev represent inward current value, membrane potential, and reversal potential, respectively.
Voltage dependence of steady-state inactivation was estimated using a standard double pulse protocol in which sodium currents were induced by a 50-ms depolarizing potential of 0 mV following a 500-ms prepulse at potentials that ranged from −150 to +10 mV with a 10-mV increment. Currents were plotted as a fraction of the maximum peak current. To obtain the midpoint voltages (V1/2) and slope factor (k), the curves of both steady-state activation and inactivation were fitted to a Boltzmann function.

[2] = Nav1.8 + FHF2B, ND7/23, 1 mM, held at −100 mV, scramble n = 8, FHF4A peptide n = 10, p > 0.05

T1 sequence (Q15858 1-1977 isoform Q15858-3 R1599P): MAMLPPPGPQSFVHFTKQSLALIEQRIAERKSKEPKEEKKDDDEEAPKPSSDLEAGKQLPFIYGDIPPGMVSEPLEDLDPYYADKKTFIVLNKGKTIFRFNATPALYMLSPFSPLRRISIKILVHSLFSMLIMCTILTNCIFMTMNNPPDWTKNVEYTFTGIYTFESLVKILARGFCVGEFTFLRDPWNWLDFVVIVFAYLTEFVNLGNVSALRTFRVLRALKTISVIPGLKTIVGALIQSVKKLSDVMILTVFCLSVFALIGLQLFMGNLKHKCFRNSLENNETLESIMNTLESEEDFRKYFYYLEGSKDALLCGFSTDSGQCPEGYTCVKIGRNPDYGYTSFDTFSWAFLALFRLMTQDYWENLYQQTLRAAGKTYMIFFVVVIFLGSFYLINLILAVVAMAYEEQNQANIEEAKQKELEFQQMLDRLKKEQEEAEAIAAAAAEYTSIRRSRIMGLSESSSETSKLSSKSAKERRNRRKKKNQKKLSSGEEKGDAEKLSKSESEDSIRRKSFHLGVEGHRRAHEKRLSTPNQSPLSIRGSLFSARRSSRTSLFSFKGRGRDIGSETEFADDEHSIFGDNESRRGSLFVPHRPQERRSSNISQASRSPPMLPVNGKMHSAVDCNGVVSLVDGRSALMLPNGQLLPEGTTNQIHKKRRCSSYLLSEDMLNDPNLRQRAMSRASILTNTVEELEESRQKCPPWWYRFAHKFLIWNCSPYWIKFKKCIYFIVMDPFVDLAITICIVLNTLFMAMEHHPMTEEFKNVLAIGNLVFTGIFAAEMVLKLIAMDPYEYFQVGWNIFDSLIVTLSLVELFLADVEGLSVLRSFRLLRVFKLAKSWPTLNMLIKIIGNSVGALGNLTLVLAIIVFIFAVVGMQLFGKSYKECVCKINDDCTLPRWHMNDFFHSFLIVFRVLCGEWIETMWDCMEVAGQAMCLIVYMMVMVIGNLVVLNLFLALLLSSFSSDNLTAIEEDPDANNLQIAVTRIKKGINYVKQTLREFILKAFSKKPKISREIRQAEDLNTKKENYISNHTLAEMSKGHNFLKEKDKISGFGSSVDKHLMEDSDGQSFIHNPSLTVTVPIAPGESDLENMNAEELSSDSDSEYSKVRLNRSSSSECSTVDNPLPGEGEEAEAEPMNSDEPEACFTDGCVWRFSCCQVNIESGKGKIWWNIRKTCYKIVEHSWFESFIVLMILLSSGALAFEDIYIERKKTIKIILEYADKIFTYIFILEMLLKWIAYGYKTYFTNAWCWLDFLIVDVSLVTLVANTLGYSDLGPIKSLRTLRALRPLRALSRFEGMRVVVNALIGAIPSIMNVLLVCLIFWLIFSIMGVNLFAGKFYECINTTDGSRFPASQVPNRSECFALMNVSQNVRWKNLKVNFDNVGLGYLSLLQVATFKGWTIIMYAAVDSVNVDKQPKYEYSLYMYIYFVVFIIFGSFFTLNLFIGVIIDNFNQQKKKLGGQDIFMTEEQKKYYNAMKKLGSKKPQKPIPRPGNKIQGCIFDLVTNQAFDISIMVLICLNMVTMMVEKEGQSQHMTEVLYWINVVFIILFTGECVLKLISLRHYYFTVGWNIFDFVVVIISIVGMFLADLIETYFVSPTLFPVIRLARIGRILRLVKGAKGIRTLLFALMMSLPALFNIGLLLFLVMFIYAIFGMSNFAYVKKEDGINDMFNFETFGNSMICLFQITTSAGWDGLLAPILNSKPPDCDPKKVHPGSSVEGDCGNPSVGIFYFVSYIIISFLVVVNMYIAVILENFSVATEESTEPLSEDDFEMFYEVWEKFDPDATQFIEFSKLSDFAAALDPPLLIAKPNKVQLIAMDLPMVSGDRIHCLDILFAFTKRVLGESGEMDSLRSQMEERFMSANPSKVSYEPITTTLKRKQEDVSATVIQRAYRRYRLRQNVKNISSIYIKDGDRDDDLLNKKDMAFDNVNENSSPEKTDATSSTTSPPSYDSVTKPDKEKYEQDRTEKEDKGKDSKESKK
T1 sequence (Q07699 19-218 partner): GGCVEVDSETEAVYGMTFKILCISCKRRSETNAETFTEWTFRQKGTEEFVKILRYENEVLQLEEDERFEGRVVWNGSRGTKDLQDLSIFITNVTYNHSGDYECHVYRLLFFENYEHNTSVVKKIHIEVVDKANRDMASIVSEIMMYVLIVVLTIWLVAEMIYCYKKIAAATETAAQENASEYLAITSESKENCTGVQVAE
T1 sequence (O60939 30-215 partner): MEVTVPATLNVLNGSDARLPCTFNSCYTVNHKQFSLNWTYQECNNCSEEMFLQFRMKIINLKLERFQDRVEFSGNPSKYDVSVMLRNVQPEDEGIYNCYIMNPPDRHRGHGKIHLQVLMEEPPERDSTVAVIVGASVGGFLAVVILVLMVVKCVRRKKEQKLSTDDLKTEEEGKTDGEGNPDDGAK

## AAAIASGLIRQKRQAREQHW [FHF4A peptide, synthetic 20-residue peptide from FHF4A A2 – W21]
Nav1.8 N390K
  voltage dependence of INaR, N390K: slightly shifted the voltage dependence of Nav1.8 INaR to more positive potentials
Nav1.8 N390K; + FHF2B, ND7/23, n = 7, p > 0.05 vs Nav1.8
  average INaR amplitude at −15 mV, N390K: 4.4% ± 0.7%
Nav1.8 N891S
  steady-state activation or inactivation, N891S vs Nav1.8: no effect on steady-state activation or inactivation
Nav1.8 N891S; + FHF2B, ND7/23, n = 6
  Activation (V1/2), N891S: −8.6 ± 2.1 (6) mV
  Inactivation (V1/2), N891S: −36.4 ± 0.7 (6) mV
Nav1.8 N891S; end of 50-ms pulse of +10 mV, normalized to peak transient current, n = 6, ***p < 0.0001
  INaP, N891S: 1.1 ± 0.5^*** (6) %
Nav1.8 F1710K; + FHF2B, ND7/23, n = 6, p < 0.0001 vs Nav1.8
  average INaR amplitude at −15 mV, F1710K: 0.5% ± 0.1%
Nav1.8 F1710K; −15 mV, vs Nav1.8
  decrease of INaR amplitude by F1710K: ninefold
[1]
  inhibition of Navβ4 peptide-mediated rpNav1.7 INaR: inhibited completely
Human Nav1.8; Nav1.8 + FHF2B, ND7/23, FHF4A peptide
  effect on steady-state activation or inactivation: did not alter steady-state activation or inactivation
Human Nav1.8; [2]
  V1/2 (activation), Nav1.8, Figure 6: −12.5 ± 1.7 mV
  V1/2 (inactivation), Nav1.8, Figure 6: −42.4 ± 4.3 mV
Human Nav1.8; end of 50-ms pulse of +10 mV, normalized to peak transient current, 1 mM FHF4A peptide, n = 9
  INaP, Nav1.8: 3.0 ± 1.8 (9) %
